Source: patent US11214540B2, “Compositions for treating neurodegenerative diseases” (COGNITION THERAPEUTICS, INC., priority 2017, dated 2022)
Where two headings read alike, the source gives them in different places.

Columns and labels:
[1] = target: Sigma-2 receptors on membranes from rat cerebral cortex (Rattus norvegicus (Rat), UniProt Q5U3Y7); test: Competitive Radioligand Binding Assay 1, Sigma-2 binding ([3H]DTG displacement with (+)pentazocine mask); settings: sigma-2 receptor affinity; read-out: S2 Ki
Chain of Sigma-2 receptors on membranes from rat cerebral cortex (Q5U3Y7 whole entry): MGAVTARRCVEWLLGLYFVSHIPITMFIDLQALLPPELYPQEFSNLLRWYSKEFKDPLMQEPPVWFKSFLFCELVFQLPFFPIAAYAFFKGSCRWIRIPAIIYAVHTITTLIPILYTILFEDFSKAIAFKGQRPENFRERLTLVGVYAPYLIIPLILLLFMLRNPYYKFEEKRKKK
Description: Using the same protocol, some compounds for which membrane trafficking data are given in Table 1 were tested for recognition of sigma-2 receptor. Certain compounds preferentially bind to the sigma-2 receptor.
(§1) For Sigma-1 binding, various concentrations of test compounds from 100 μM to 1 nM were used to displace 8 nM [3H](+)pentazocine from endogenous receptors on Jurkat cell membranes (Ganapathy M E et al. 1991, J Pharmacol. Exp. Ther. 289:251-260). 10 μM Haloperidol was used to define non-specific binding. […] (Bowen W D, et al. 1993, Mol. Neuropharmcol 3:117-126). 10 μM Haloperidol was used to define non-specific binding. Reactions were terminated by rapid filtration through Whatman GF/C filters using a Brandel 12R cell harvester followed by two washes with ice-cold buffer. Radioactivity on the dried filter discs was measured using a liquid scintillation analyzer (Tri-Carb 2900TR; PerkinElmer Life and Analytical Sciences). The displacement curves were plotted and the Ki values of the test compounds for the receptor subtypes were determined using GraphPad Prism (GraphPad Software Inc., San Diego, Calif.). The percentage specific binding was determined by dividing the difference between total bound (disintegrations per minute) and nonspecific bound (disintegrations per minute) by the total bound (disintegrations per minute).
Affinities for Sigma-1 and Sigma-2 receptors are typically obtained from published studies using cerebral tissue homogenates with [3H](+)pentazocine to measure displacement from Sigma-1 receptors and [3H] 1,3-Di-(2-tolyl)guanidine in the presence of 300 nM (+)pentazocine to measure displacement from Sigma-2 receptors.

log P = format: physicochemical; settings: for logP: octanol/water
How it was run: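 Ratio of un-ionized compound concentrations between octanol and water, with aqueous pH set so the un-ionized form predominates. Value given as the log of the octanol/water ratio.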

potassium channel hERG = potassium channel hERG (Homo sapiens (Human), UniProt Q12809); test: In vitro testing for hERG inhibition; format: biochemical; settings: in vitro toxicity potassium channel hERG
Chain of potassium channel hERG (Q12809 whole entry): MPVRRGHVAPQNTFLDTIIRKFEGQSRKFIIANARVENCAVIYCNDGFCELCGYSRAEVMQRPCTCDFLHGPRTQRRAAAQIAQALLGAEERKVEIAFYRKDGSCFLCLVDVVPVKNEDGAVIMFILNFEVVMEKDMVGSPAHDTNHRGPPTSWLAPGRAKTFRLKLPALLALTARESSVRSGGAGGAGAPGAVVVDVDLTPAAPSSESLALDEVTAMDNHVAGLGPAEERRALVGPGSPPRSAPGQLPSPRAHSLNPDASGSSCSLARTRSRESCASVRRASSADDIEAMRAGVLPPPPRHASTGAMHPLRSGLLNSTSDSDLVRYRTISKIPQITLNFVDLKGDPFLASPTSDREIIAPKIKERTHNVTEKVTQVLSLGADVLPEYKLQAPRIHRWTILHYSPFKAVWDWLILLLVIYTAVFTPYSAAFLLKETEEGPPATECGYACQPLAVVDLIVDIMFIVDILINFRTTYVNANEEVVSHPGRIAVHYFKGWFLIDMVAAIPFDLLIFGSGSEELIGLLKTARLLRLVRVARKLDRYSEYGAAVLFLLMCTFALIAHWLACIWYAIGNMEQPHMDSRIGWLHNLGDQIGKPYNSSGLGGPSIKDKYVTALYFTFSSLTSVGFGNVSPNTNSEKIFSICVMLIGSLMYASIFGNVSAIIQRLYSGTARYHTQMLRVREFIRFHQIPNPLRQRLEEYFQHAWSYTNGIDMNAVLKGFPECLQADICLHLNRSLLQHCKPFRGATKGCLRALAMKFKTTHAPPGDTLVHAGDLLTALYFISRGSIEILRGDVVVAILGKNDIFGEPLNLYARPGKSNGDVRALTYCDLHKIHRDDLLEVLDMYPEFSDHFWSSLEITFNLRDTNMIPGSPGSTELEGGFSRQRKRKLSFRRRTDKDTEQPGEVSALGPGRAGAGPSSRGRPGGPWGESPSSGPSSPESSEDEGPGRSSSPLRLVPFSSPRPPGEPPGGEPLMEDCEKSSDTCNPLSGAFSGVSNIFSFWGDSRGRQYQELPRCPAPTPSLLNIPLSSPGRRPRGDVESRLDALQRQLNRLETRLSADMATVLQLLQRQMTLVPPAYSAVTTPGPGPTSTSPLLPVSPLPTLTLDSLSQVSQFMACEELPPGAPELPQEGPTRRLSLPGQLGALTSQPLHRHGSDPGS
Description: In vitro testing for hERG inhibition was performed in a standard assay (See: Haverkamp W, Breithardt G, Carnm A J, Janse M J, Rosen M R, Antzelevitch C, Escande D, Franz M, Malik M, Moss A and Shah R. (2000) Eur Heat J 21 (15); 1216-31).

[2] = target: Sigma-1 receptors on Jurkat cell membranes (Homo sapiens (Human), UniProt Q99720); test: Competitive Radioligand Binding Assay 1, Sigma-1 binding ([3H](+)pentazocine displacement); settings: sigma-1 receptor affinity; read-out: S1 Ki
Chain of Sigma-1 receptors on Jurkat cell membranes (Q99720 whole entry): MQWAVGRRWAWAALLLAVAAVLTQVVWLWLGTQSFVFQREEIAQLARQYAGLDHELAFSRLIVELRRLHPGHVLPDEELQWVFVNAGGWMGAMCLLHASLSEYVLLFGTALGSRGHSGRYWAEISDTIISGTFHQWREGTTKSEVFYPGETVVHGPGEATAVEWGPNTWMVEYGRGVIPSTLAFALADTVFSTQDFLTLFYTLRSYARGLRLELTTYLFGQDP
Description: Certain compounds were tested for interaction with several receptors by blocking the binding or action of their agonists or antagonists. Some compounds were tested to see whether they interact directly with known cellular receptor or signaling proteins. Compounds can be tested for the ability to displace binding of known agonists or antagonists of a given human receptor that was overexpressed in cell lines or isolated from tissue. Compounds can also be tested for the ability to block downstream signaling induced by agonists or antagonists of a given human receptor. Compounds can be tested for action at 100 known receptors, and it is desirable that specific activity will occur at only a small subset of CNS-relevant receptors.
as §1, with “minute). […]” for “minute).”

[3] = test system: Abeta oligomer-induced membrane trafficking deficits in primary hippocampal neurons; test: Membrane Trafficking/Exocytosis (MTT) assay, Abeta oligomer effect on neurons; format: cell-based, rat; settings: membrane trafficking, read-out: EC50 Abeta;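 further: compound potency for inhibiting the Abeta oligomer effect on exocytosis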
How it was run: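 Rat E18 hippocampal neurons cultured 3 weeks received compound (100 uM to 0.001 nM), then vehicle or Abeta 1-42 oligomers (3 μM total Abeta), for 1-24 h at 37 °C. MTT was added for 1 h, and formazan vesicle exocytosis was quantified by automated imaging with DAPI toxicity check. Tukey-Kramer comparisons were made with N=4.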

[4] = Mouse liver microsome (MLM) stability; format: in vitro ADME; settings: microsomal stability in mouse liver microsomes (MLM)
Description: A first pharmacokinetic study was performed in microsomes of mice mouse liver microsomes, MLM).
Microsomal stability experiments and plasma stability experiments were performed to determine metabolic and hepatic stability of candidate compounds.

[5] = Rattus norvegicus, Hippocampal neuron

Ki [1] [nM]	log P (log P)	Ki [2] [nM]	MLM T1/2 [4] [min]	logP (log P)	Structure (SMILES)	IC50 (potassium channel hERG) [nM]	EC50 [3] [nM]	EC50 [3, 5] [nM]
0.2	5.16	0.7			CC(C)(CCN1CCC(C2CCOCC2)CC1)c1ccc(C(F)(F)F)cc1 [Compound 1]	740		
0.6	4.67	0.9			CC(CC(C)(C)c1ccc(C(F)(F)F)cc1)N1CCC(CCO)CC1 (centres unmarked) [Compound 2]	9200	> 15000	
0.8	5.35	0.5			COCCCC1CCN(CCC(C)(C)c2ccc(C(F)(F)F)cc2)CC1 [Compound 4]	2200		
1	4.49	0.3			COC1CCN(C(C)CC(C)(C)c2ccc(C(F)(F)F)cc2)CC1 (centres unmarked) [Compound 6]	750	> 15000	
1.6	3.16	0.4			CC(C)(CCN1CCC(O)CC1)c1ccc(Cl)cc1 [Compound 8]	14000	250	
2.1	3.8	0.7			COC1CCN(CCC(C)(C)c2ccc(Cl)cc2)CC1 [Compound 10]	11000	1260	
2.7	4.13	1			CCC(C)(O)CCNC(C)CC(C)(C)c1ccc(C(F)(F)F)cc1 (centres unmarked) [Compound 12]	970		
2.9	3.85	1			CC(CC(C)(C)c1ccc(C(F)(F)F)cc1)N1CCC(O)CC1 (centres unmarked) [Compound 13]	2500		
4.5	4.03	0.8			CC(CC(C)(C)c1ccc(Cl)cc1)N1CCC(CO)CC1 (centres unmarked) [Compound 16]	840		
5.6	2.72	2.6			CC(C)=CC(COc1ccc(F)cc1)N1CCC(O)CC1 (centres unmarked) [Compound 18]	29000	250	
6	3.57	2.2			CC(CC(C)(C)c1ccc(F)cc1)N1CCC(CO)CC1 (centres unmarked) [Compound 19]	37000	< 250	
6.1	3.57	1			CC(CC(C)(C)c1ccc(Cl)cc1)N1CCC(O)CC1 (centres unmarked) [Compound 20]	1700		
7	3.85	1			CC(CC(C)(C)c1ccc(Cl)cc1)N1CCC(C)(O)CC1 (centres unmarked) [Compound 22]	1700		
10	3.11	2.3			CC(CC(C)(C)c1ccc(F)cc1)N1CCC(O)CC1 (centres unmarked) [Compound 25]	4000		
43	5.49	25			COC1CCN(C(C=C(C)C)CC(C)(C)c2ccc(C(F)(F)F)cc2)CC1 (centres unmarked) [Compound 39]	8200	600	
44	6.28	170			COCCOCCC1CCN(C(C=C(C)C)CC(C)(C)c2ccc(C(F)(F)F)cc2)CC1 (centres unmarked) [Compound 40]	9600	830	
79	6.27	260			CC(C)=CC(CC(C)(C)c1ccc(C(F)(F)F)cc1)N1CCC(OC(C)C)CC1 (centres unmarked) [Compound 44]	9200	1400	
90	5.55	1910			CC(C)=CC(CC(C)(C)c1ccc(F)cc1)N1CCN(C(=O)OC(C)(C)C)CC1 (centres unmarked) [Compound 47]	14000		

Ki [1] [nM]	log P (log P)	Ki [2] [nM]	MLM T1/2 [4] [min]	logP (log P)	Structure (SMILES)	IC50 (potassium channel hERG) [nM]	EC50 [3] [nM]	EC50 [3, 5] [nM]
160	5.12	600			CCOC1CCN(C(C=C(C)C)CC(C)(C)c2ccc(F)cc2)CC1 (centres unmarked) [Compound 59]	73000	250	
268	3.52	535			CC(C)=CC(CCc1ccc(C)cc1)N1CCC(C2CCOCC2)CC1 (centres unmarked) [Compound 64]	11000		
270	4.13	1200			CC(C)=CC(CCc1ccc(F)cc1)N1CCC(C2CCOCC2)CC1 (centres unmarked) [Compound 65]	2300		
340	4.61	62			CC(=O)N1CCN(C(C=C(C)C)CC(C)(C)c2ccc(C(F)(F)F)cc2)CC1 (centres unmarked) [Compound 71]	17000		
430	4.54				COc1ccc(C(C)(C)CC(C=C(C)C)NCC2CCOCC2)cc1 (centres unmarked) [Compound 74]		12900	
690	4.33	690			CC(=O)N1CCN(C(C=C(C)C)CC(C)(C)c2ccc(Cl)cc2)CC1 (centres unmarked) [Compound 75]	15000	250	
1300	6.93				CC(C)=CC(CC(C)(C)c1ccc(C)cc1)N[C@H](C)c1ccccc1 (some centres unmarked) [Compound 80]		640	
2500	3.87	160			CC(=O)N1CCN(C(C=C(C)C)CC(C)(C)c2ccc(F)cc2)CC1 (centres unmarked) [Compound 81]	32000		
1000	5.31	1000			CC(C)=C[C@@H](CC(C)(C)c1ccc(C(F)(F)F)cc1)N1CCC[C@@H]1CO [Compound 83]	14000	3800	
1000	4.67	1000			COC[C@H]1CCCN1C(C)CC(C)(C)c1ccc(Cl)cc1 (some centres unmarked) [Compound 84]	3900	250	
	5.59		4.9		CC(C)=CC(CC(C)(C)c1ccc(C)cc1)N(C)CC1CCOCC1 (centres unmarked) [Compound 112]			
	5.63		1.8		CC(C)=CC(CCc1ccc(C)cc1)N1CCC(C2CCOCC2)CC1 (centres unmarked) [Compound 114]			
	5.49	430			CC(C)=CC(CC(C)(C)c1ccc(F)cc1)N1CCC(CCOC2CCOC2)CC1 (centres unmarked) [Compound 179]	4000		
	6.22	160			CC(C)=CC(CC(C)(C)c1ccc(C(F)(F)F)cc1)N1CCC(CCOC2CCOC2)CC1 (centres unmarked) [Compound 182]	2600		
	2.57	220			CC(C)=CC(COc1ccccc1)N1CCC(O)CC1 (centres unmarked) [Compound 184]	62000		
	3.18	42			CC(C)=CC(COc1ccc(Cl)cc1)N1CCC(O)CC1 (centres unmarked) [Compound 186]	2300		
3		1.9		3.71	CC1(O)CCN(CCC(C)(C)c2ccc(C(F)(F)F)cc2)CC1 [Example 14]	18000		3700
5.1		1.3		3.43	CC(C)(CCN1CCC(O)CC1)c1ccc(C(F)(F)F)cc1 [Example 17]	11000		2240

Structure (SMILES)	Ki [1] [nM]	log P (log P)	Ki [2] [nM]	MLM T1/2 [4] [min]	logP (log P)	IC50 (potassium channel hERG) [nM]	EC50 [3] [nM]	EC50 [3, 5] [nM]
CC(C)=CC(CC(C)(C)c1ccc(C(F)(F)F)cc1)N1CCC2(CC1)OCc1ccccc12 (centres unmarked) [Compound 189]		6.89	37			5700		
